Data set [1] relates to Porcine liver esterase. As to the kind of experiment: Enzymatic hydrolysis rates by porcine liver esterase. The format is in vitro ADME. As to conditions: 1 mM, pH 8.0, 37° C. On the procedure: Porcine liver esterase (0.5 U=2 μg) was preincubated in 40 mM Tris-HCl buffer, pH 8.0, at 37° C. for 5 min. The reaction was initiated with the addition of the test compound (final concentration, 1 mM) in the final volume of 250 μl. Enzyme reaction was terminated at different time intervals by the addition of 60 μl of 1M acetic acid. The solution was made alkaline (pH 10.5) by adding 0.4M NaOH and the alkaline solution was rapidly extracted (three times) with 2.5 ml of chloroform. An aliquot of the aqueous supernatant was diluted with double distilled water and the absorbance was measured at 290 nm. Amount of test compound III (molar extinction=14,400) formed was calculated.

Data set [2] has as its system colonic motility. The data set can be described thus: Motility of the large bowel (colonic motor complex) in conscious dogs. The format is in vivo, dog. An excerpt: Male dogs (THG Tierhandelsgesellschaft Rodenbach, Hoe:BEAK (Beagle)) weighing 15-20 kg were used in all experiments.
(§1) At least 4 weeks prior the experiment the dogs had been equipped with miniaturized strain gage force transducers (T1-T2) (2×4 mm), sutured onto the gut at the locations mentioned below. The cables of the transducers were embedded into a cannula which carried the plug for external electric connection. This stainless steel cannula was implanted into the abdominal wall, close below the costal arch. Each transducer was connected to a measuring bridge. The signals were on-line stored using a HP 9835 A computer, thereby allowing later analysis of the data.
T1: Colon ascendens 10 cm aborafrom the ileoceval valve (ICV)
T2: Colon transversum 25 cm aborad from the ICV
18 hours prior to the experiment food was withdrawn from the animals, water ad libidum All experiments started between 08:00 and 09:00 am.
The following parameters were determined:
The duration of the cycle (min)
The duration of the colonic motor complex (CMC) (min)
The maximal height of the concentrations (AU: arbitrary units)
Data from the two recording sites (T1-T2) were pooled. […]
Statistical methods: For detection of significant differences (p<0.05) the unpaired t-test was used. Only significant differences were indicated by *.

Data set [3] relates to sciatic nerve. As to the kind of experiment: Conduction block anaesthesia in the rat, injection near sciatic nerve. The format is in vivo. As to conditions: for blockade of nerve conduction: injected near the sciatic nerve, hydrochloride. On the procedure:
Conduction block anaesthesia was produced in the rat using compound II [(Isopropyl 2-(4-2-piperidinoethoxy)-benzoyl)benzoate hydrochloride] according to the method of Traunt. (Traunt, A. P. Arch. Int. Phamacodyn. 115:483-497,1957).
The conduction block produced was of long duration and required a number of days for complete recovery. A dose of 20 mg/kg compound II blocked nerve conduction in the rat for about 33 days. Ten mg/kg of compound II blocked the nerve for 18±2 days (n=25). In comparison, 10 mg/kg of lignocaine, a standard local anesthetic, produced conduction block for only 0.086±0.01 days (n-10). […] This long lasting but reversible blockade of nerve conduction is of significant interest in the treatment of cancers, neuralgias and post-surgical states.

Data set [4] has as its system small intestine motility. As to the kind of experiment: Small intestinal motility in the conscious dog, phase I and II activity. The format is in vivo. The note with it: for rank order of potency: spontaneous motility of small intestine, conscious dog.
Source text: as §1, with “Male dogs (THG Tierhandelsgesellschaft Rodenbach, Hoe: BEAK (Beagle)) weighing 15-20 kg were used in all experiments. At” for “At”, “prior to” for “prior”, “(T1-T3)” for “(T1-T2)”, “on line” for “on-line”, “computer,” for “computer, thereby”
(§2) 18 hours prior to the experiment food was withdrawn from the animals, water ad libidum. All experiments started between 08:00 and 09:00 am.
(§3) The following motility parameters were determined:
The integral under the concentration curves at 10 min intervals (mN×10min) as an index of phase I+II activity. The duration of drug action (min.)
(§4) The duration of the interdigestive migrating complex (IMC) (min) as a measure of phase III activity.
(§5) Test Compound II was given at doses of 0.2 and 0.5 mg/kg i.v. or 5 mg/kg i.g., dissolved in saline, in a volume of 1 ml/kg (i.v.) or 2 ml/kg (i.g.), n=3-6. Control n=26.
Reference substances: Buscopan, pitofenon.
Buscopan was given at doses of 0.3 and 1 mg/kg i.v., dissolved in saline, in a volume of 1 ml/kg, n=4-6. Pitofenone was given at doses of 1 mg/kg i.v., dissolved in saline, in a volume of 1 ml/kg, n=8.
1D50 -values were determined graphically.

For data set [5], the system named is small intestine motility. As to the kind of experiment: Small intestinal motility in the conscious dog, phase III activity, intragastrical. The class given is in vivo. The note with it: 5 mg/kg intragastrically.
Source text: as §1, with “Male dogs (THG Tierhandelsgesellschaft Rodenbach, Hoe: BEAK (Beagle)) weighing 15-20 kg were used in all experiments. At” for “At”, “prior to” for “prior”, “(T1-T3)” for “(T1-T2)”, “on line” for “on-line”, “computer,” for “computer, thereby”
as §2, §3, §4, §5

Data set [6] deals with Guinea pig ileum. The data set can be described thus: Antispasmodic activity in isolated guinea pig ileum (acetylcholine contraction). The format is cell-based. As to conditions: for Duration of action: isolated guinea pig ileum. Here is the method: Small intestines obtained from freshly sacrificed guinea pigs (weight range, 200-400 g) of either sex were cleaned and stored in tyrode solution. A piece of ileum was mounted in an organ bath containing tyrode solution at 37° C. and maintained at a tension of 0.5 to 1.0 g. The solution was continuously aerated with compressed air. After an initial equilibration period, a sub-maximal dose of acetylcholine required for measurable contraction was standardized. Tension changes were monitored using an isotonic strain gauge attached to the tissue and the responses were recorded on a strip chart recorder. Antispasmodic activity of test compounds at different concentrations was followed and the IC50, values were calculated from dose response curves.

For data set [7] the following is noted: cited from earlier work.

Read-outs that look alike come from different tables or passages of the source. A value given as a limit tells only on which side of the number the result lay.

The values that follow come from patent US5821252A, “Method of blocking nerve conduction by treatment with branched-chain esters of 2-[4-(2-piperidine-ethoxy)-benzoyl]-benzoic acid and pharmaceutically acceptable salts thereof” (priority 1988, dated 1998).

With `CC(C)OC(=O)c1ccccc1C(=O)c1ccc(OCCN2CCCCC2)cc1.Cl` [Test compound II, Isopropyl-2-[4-(2-piperidino-ethoxy)-benzoyl]-benzoate hydrochloride], the “μmol test compound III formed per mg protein per ml” value in data set [1] (time 0.0 hours) is on record as 0.00 μmol per mg protein per ml; in data set [1] (time 0.5 hours), 0.05 μmol per mg protein per ml; in data set [1] (time 2.0 hours) it was 0.10 μmol per mg protein per ml; in data set [1] (time 3.5 hours) it was 0.10 μmol per mg protein per ml. Also, the “effect on colonic motility” value in data set [2] (1 mg/kg i.g.) is recorded as “uneffective”. For the same molecule, the “inhibition of colonic motility” value in data set [2] (4 mg/kg i.g. (so in the source)) is recorded as “inhibited colonic motility (CMC in the conscious dog completely”. In addition, the “duration of nerve conduction block” value was 18 ± 2 days in data set [3] (10 mg/kg near sciatic nerve) and “about 33 days” in data set [3] (20 mg/kg near sciatic nerve). Besides, the “blockade of nerve conduction” value in data set [3] (listed as Compound II) was “dose-dependent blockade of nerve conduction”; in data set [3] (listed as compound II), “reversible blockade of nerve conduction lasting for hours to days”. The “duration of inhibitory effect” value in data set [4] (0.5 mg/kg i.v.) was “approximately one”. In data set [4], the “rank order of potency” value is recorded as “Test Compound II>buscopan>pitofenon”. Moreover, in data set [5], the “inhibition of phase III activity” value is listed as “a pronounced inhibition of phase III activity”. In addition, the Duration of action in data set [6] is on record as more than 7.0 min.
A word on the IC50: it is the concentration needed to halve the response being measured. The low end stands for greater potency, the high end for weaker potency. For `COC(=O)c1ccccc1C(=O)c1ccc(OCCN2CCCCC2)cc1.Cl` [Test compound I, Methyl-2-[4-(2-piperidino-ethoxy)-benzoyl]-benzoate hydrochloride], the “μmol test compound III formed per mg protein per ml” value in data set [1] (time 0.0 hours) is given as 0.00 μmol per mg protein per ml; in data set [1] (time 0.5 hours) it was 0.50 μmol per mg protein per ml; in data set [1] (time 2.0 hours) it was 1.62 μmol per mg protein per ml; in data set [1] (time 3.5 hours), 2.78 μmol per mg protein per ml. Moreover, the antispasmodic activity result is “potent antispasmodic activity” in data set [7] (administered intravenously) and “considerably reduced” in data set [7] (administered orally). The “metabolism of methyl ester to the corresponding acid” value in data set [7] (oral) is given as “rapid metabolism of the methyl ester to the corresponding acid”. The “rank order of potency” value in data set [4] is reported as “Test Compound II>buscopan>pitofenon”. Half-maximal inhibition in data set [6] (Cavia porcellus, acetylcholine contraction, isolated ileum, 37° C.) (IC50) was put at 1 mg/L. The same molecule yielded a Duration of action in data set [6] of less than 1.5 min.
`CCCC[N+]1(C)[C@@H]2C[C@@H](OC(=O)[C@H](CO)c3ccccc3)C[C@H]1[C@@H]1O[C@@H]12` (some centres unmarked) [Buscopan]: the “Max. height of CMC” value in data set [2] (3 mg/kg intragastrically) stood at 35 ± 17 AU. The “effect on colonic motility” value in data set [2] (3 and 10 mg/kg i.g.) is “no effect on colonic motility”. In data set [4] (1 mg/kg i.v., until postdrug values reached 90% or more of predrug), this molecule showed a Duration of action of 30 min. The “rank order of potency” value in data set [4] is listed as “Test Compound II>buscopan>pitofenon”.
Turning to `CCN(CC)CC(=O)Nc1c(C)cccc1C` [lignocaine], the “duration of nerve conduction block” value in data set [3] (10 mg/kg near sciatic nerve) came to 0.086 ± 0.01 days.
